Source: paper PMC9181126, “Design, Synthesis, Molecular Docking Analysis and Biological Evaluations of 4-[(Quinolin-4-yl)amino]benzamide Derivatives as Novel Anti-Influenza Virus Agents” (International Journal of Molecular Sciences, 2022)

Columns and labels:
PA-PB1 endonuclease [1] = test: Experimental PA-PB1 inhibitory activity of literature inhibitors (training and test set); type: biochemical, influenza virus; details: class of the experimental IC50
PA-PB1 endonuclease [2] = tested on: PA-PB1 endonuclease; set-up: method as in supplement 1-7; details: training and test set compounds collected from literature; ref supplement 1-7; read-out: IC50 value Experimental (PA-PB1 endonuclease inhibitors); cited from earlier work

Compound: CCOc1ccc(C(=O)Nc2nc3n(n2)C(c2ccccc2)C=C(C)N3)cc1 (stereo not shown) [Compound H23]
- Activity scale Experimental (PA-PB1 endonuclease [1]): ++ (++, IC50 100 to 150 μM (moderately active))
- IC50 (PA-PB1 endonuclease [2]): 139 µM

Compound: Cc1ccc(-c2cc(-c3ccccc3)nc(SC(C)C(=O)Nc3ccc(C)c(C)c3)c2C#N)cc1 (stereo not shown) [Compound H38]
- Activity scale Experimental (PA-PB1 endonuclease [1]): + (+, IC50 >150 μM (inactive))
- IC50 (PA-PB1 endonuclease [2]): 180 µM

Compound: Cc1cc(-c2ccccc2)n2nc(C(=O)Nc3nc4ccccc4s3)nc2n1 [Compound H09]
- Activity scale Experimental (PA-PB1 endonuclease [1]): +++ (+++, IC50 10 to 100 μM (active))
- IC50 (PA-PB1 endonuclease [2]): 21 µM

Compound: COc1ccccc1C(=O)Nc1sc2c(c1C(=O)Nc1ccc(Cl)cc1)CCCCC2 [Compound H34]
- Activity scale Experimental (PA-PB1 endonuclease [1]): +++ (+++, IC50 10 to 100 μM (active))
- IC50 (PA-PB1 endonuclease [2]): 78 µM

Compound: NC(=O)c1c(NC(=O)c2cnn3c(C(F)F)cc(-c4ccccc4)nc23)sc2c1CCC2 [Compound H16]
- Activity scale Experimental (PA-PB1 endonuclease [1]): +++ (+++, IC50 10 to 100 μM (active))
- IC50 (PA-PB1 endonuclease [2]): 25.4 µM

Compound: CC1=CC(c2ccccc2)n2nc(NC(=O)c3ccc(OC(C)C)cc3)nc2N1 (stereo not shown) [Compound H22]
- Activity scale Experimental (PA-PB1 endonuclease [1]): +++ (+++, IC50 10 to 100 μM (active))
- IC50 (PA-PB1 endonuclease [2]): 75 µM

Compound: Cc1cc(-c2ccccc2)n2nc(C(=O)Nc3ccccc3C(N)=O)nc2n1 [Compound H05]
- Activity scale Experimental (PA-PB1 endonuclease [1]): +++ (+++, IC50 10 to 100 μM (active))
- IC50 (PA-PB1 endonuclease [2]): 11 µM

Compound: NC(=O)c1c(NC(=O)c2cnn3c(C(F)F)cc(-c4ccccc4)nc23)sc2c1CCC2 [Compound H32]
- Activity scale Experimental (PA-PB1 endonuclease [1]): +++ (+++, IC50 10 to 100 μM (active))
- IC50 (PA-PB1 endonuclease [2]): 25.4 µM

Compound: COc1ccccc1C(=O)Nc1sc2c(c1C(=O)Nc1ccccn1)CCCCC2 [Compound H11]
- Activity scale Experimental (PA-PB1 endonuclease [1]): +++ (+++, IC50 10 to 100 μM (active))
- IC50 (PA-PB1 endonuclease [2]): 22 µM

Compound: CCOC(=O)c1ccc(NC(=O)CSc2nc(-c3ccccc3)cc(-c3ccc(OCc4ccccc4)c(OCC)c3)c2C#N)cc1 [Compound H30]
- Activity scale Experimental (PA-PB1 endonuclease [1]): +++ (+++, IC50 10 to 100 μM (active))
- IC50 (PA-PB1 endonuclease [2]): 30 µM

Compound: Cc1cc(-c2ccccc2)n2nc(C(=O)Nc3sc4c(c3C(=O)O)CCCCC4)nc2n1 [Compound H08]
- Activity scale Experimental (PA-PB1 endonuclease [1]): +++ (+++, IC50 10 to 100 μM (active))
- IC50 (PA-PB1 endonuclease [2]): 19 µM

Compound: O=C(Nc1sc2c(c1C(=O)Nc1ccccn1)CCCCC2)c1ccc(O)cc1 [Compound H13]
- Activity scale Experimental (PA-PB1 endonuclease [1]): +++ (+++, IC50 10 to 100 μM (active))
- IC50 (PA-PB1 endonuclease [2]): 26 µM

Compound: CC1=CC(c2ccccc2)n2nc(NC(=O)c3ccc(F)cc3)nc2N1 (stereo not shown) [Compound H27]
- Activity scale Experimental (PA-PB1 endonuclease [1]): ++ (++, IC50 100 to 150 μM (moderately active))
- IC50 (PA-PB1 endonuclease [2]): 138 µM

Compound: CCCCOc1ccc(C(=O)Nc2nc3n(n2)C(c2ccccc2)C=C(C)N3)cc1 (stereo not shown) [Compound H18]
- Activity scale Experimental (PA-PB1 endonuclease [1]): +++ (+++, IC50 10 to 100 μM (active))
- IC50 (PA-PB1 endonuclease [2]): 37 µM

Compound: O=C(Nc1sc2c(c1C(=O)Nc1nccs1)CCCCC2)c1ccccc1O [Compound H33]
- Activity scale Experimental (PA-PB1 endonuclease [1]): +++ (+++, IC50 10 to 100 μM (active))
- IC50 (PA-PB1 endonuclease [2]): 69 µM

Compound: Cc1cc(-c2ccccc2)nc2nc(NC(=O)c3ccccc3)nn12 [Compound H20]
- Activity scale Experimental (PA-PB1 endonuclease [1]): +++ (+++, IC50 10 to 100 μM (active))
- IC50 (PA-PB1 endonuclease [2]): 26 µM

Compound: CC1=CC(c2ccccc2)n2nc(NC(=O)c3cccc(F)c3)nc2N1 (stereo not shown) [Compound H26]
- Activity scale Experimental (PA-PB1 endonuclease [1]): + (+, IC50 >150 μM (inactive))
- IC50 (PA-PB1 endonuclease [2]): 156 µM

Compound: Cc1ccc(-c2cc(-c3ccccc3)nc(SC(C)C(=O)Nc3cccc(Cl)c3)c2C#N)cc1 (stereo not shown) [Compound H36]
- Activity scale Experimental (PA-PB1 endonuclease [1]): ++ (++, IC50 100 to 150 μM (moderately active))
- IC50 (PA-PB1 endonuclease [2]): 125 µM

Compound: Cc1cc(-c2ccccc2)n2nc(C(=O)Nc3sc4c(c3C(=O)Nc3ccccn3)CCCCC4)nc2n1 [Compound H06]
- Activity scale Experimental (PA-PB1 endonuclease [1]): +++ (+++, IC50 10 to 100 μM (active))
- IC50 (PA-PB1 endonuclease [2]): 23 µM

Compound: CCCOc1ccc(C(=O)Nc2nc3n(n2)C(c2ccccc2)C=C(C)N3)cc1 (stereo not shown) [Compound H21]
- Activity scale Experimental (PA-PB1 endonuclease [1]): +++ (+++, IC50 10 to 100 μM (active))
- IC50 (PA-PB1 endonuclease [2]): 40 µM
